Legend:
in vitro = settings: human, CC50 nM in MT-4
Description: For the antiviral assay utilizing MT4 cells, 0.4 μL of […] test concentration of 3-fold serially diluted compound in DMSO was added to 40 μL of cell growth medium (RPMI 1640, 10% FBS, 1% penicilline/Streptomycine, 1% L-Glutamine, 1% HEPES) in each well of 384-well assay plates (10 concentrations) in quidruplicate.
1 mL aliquots of 2×10^6 MT4 cells are pre-infected for 1 and 3 hours respectively at 37° C. with 25 μL (MT4) or of either cell growth medium (mock-infected) or a fresh 1:250 dilution of an HIV-IIIb concentrated ABI stock (0.004 m.o.i. for MT4 cells). Infected and uninfected cells are diluted in cell growth medium and 35 μL of 2000 (for MT4) cells is added to each well of the assay plates.
Assay plates were then incubated in a 37° C. incubator. After 5 days of incubation, 25 μL of 2× concentrated CellTiter-Glo™ Reagent (catalog #G7573, Promega Biosciences, Inc., Madison, Wis.) was added to each well of the assay plate. Cell lysis was carried out by incubating at room temperature for 2-3 minutes, and then chemiluminescence was read using the Envision reader (PerkinElmer).

PXR = PXR (Homo sapiens (Human), UniProt O75469); test: Human PXR activation assay (luciferase reporter gene assay, DPX2 cells); type: cell-based; settings: human
Description: A stably transformed tumor cell line (DPX2) was plated on 96-well microtiter plates. DPX2 cells harbor the human PXR gene (NR112) and a luciferase reporter gene linked to two promoters identified in the human CYP3A4 gene, namely XREM and PXRE. […] The number of viable cells was determined and the reporter gene activity was assessed. Positive control: […]

Sequence of PXR (O75469 whole entry): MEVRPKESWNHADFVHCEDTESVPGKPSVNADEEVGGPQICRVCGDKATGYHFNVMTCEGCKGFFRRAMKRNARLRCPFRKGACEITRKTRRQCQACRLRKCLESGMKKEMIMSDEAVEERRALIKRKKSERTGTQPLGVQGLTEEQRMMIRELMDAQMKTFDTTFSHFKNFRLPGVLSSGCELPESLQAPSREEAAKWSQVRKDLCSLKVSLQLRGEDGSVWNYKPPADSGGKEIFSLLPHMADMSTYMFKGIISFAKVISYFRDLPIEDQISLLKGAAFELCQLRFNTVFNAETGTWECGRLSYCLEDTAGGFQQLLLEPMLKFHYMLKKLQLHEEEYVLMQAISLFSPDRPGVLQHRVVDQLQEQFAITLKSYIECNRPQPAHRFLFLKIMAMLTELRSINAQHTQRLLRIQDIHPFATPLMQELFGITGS

SMILES | CC50 at 5 days (in vitro) [nM] | Emax at 24 h, 15 µM (PXR) [%]
O=C(NCc1c(F)cc(F)cc1F)c1cn2c(c(O)c1=O)C(=O)N1[C@H](C2)[C@H]2C[C@H](F)[C@@H]1C2 [Compound 81, (1R,3S,4S,12aS)-3-fluoro-7-hydroxy-6,8-dioxo-N-(2,4,6-trifluorobenzyl)-1,2,3,4,6,8,12,12a-octahydro-1,4-methanodipyrido[1,2-a:1′,2′-d]pyrazine-9-carboxamide] | 12300 | 1
O=C(NCc1c(F)cc(F)cc1F)c1cn2c(c(O)c1=O)C(=O)N1[C@H]3CC(F)C(C3)[C@@H]1C2 (stereo in doubt) [Compound 56, (1R,2S,4R,12aR)-2-fluoro-7-hydroxy-6,8-dioxo-N-(2,4,6-trifluorobenzyl)-1,2,3,4,6,8,12,12a-octahydro-1,4-methanodipyrido[1,2-a:1′,2′-d]pyrazine-9-carboxamide] | 17200 | 3
O=C(NCc1ccc(F)cc1F)c1cn2c(c(O)c1=O)C(=O)N1C(C2)[N@@]2CCC[C@@H]1C2 (stereo partly drawn) [Compound 20, (1S,5R)-N-(2,4-difluorobenzyl)-8-hydroxy-7,9-dioxo-2,3,4,5,7,9,13,13a-octahydro-1,5-methanopyrido[1′,2′:4,5]pyrazino[1,2-a][1,3]diazepine-10-carboxamide] | 28000 | 2
O=C(NCc1c(F)cc(F)cc1F)c1cn2c(c(O)c1=O)C(=O)N1[C@@H]3C[C@@H](C(F)C3F)[C@@H]1C2 (stereo partly drawn) [Compound 103, (1R,4R,12aR)-2,3-difluoro-7-hydroxy-6,8-dioxo-N-(2,4,6-trifluorobenzyl)-1,2,3,4,6,8,12,12a-octahydro-1,4-methanodipyrido[1,2-a:1′,2′-d]pyrazine-9-carboxamide] | 35100 | 0
O=C(NCc1cc(Cl)c(F)cc1F)c1cn2c(c(O)c1=O)C(=O)N1[C@H]3CC[C@H](C3)[C@@H]1C2 [Compound 80, (1R,4S,12aR)-N-(5-chloro-2,4-difluorobenzyl)-7-hydroxy-6,8-dioxo-1,2,3,4,6,8,12,12a-octahydro-1,4-methanodipyrido[1,2-a:1′,2′-d]pyrazine-9-carboxamide] | 5040 | 2
O=C(NCc1ccc(F)c(F)c1)c1cn2c(c(O)c1=O)C(=O)N1[C@@H]3CC[C@@H](C3)O[C@H]1C2 [Compound 18, (2S,5R,13aS)-N-(3,4-difluorobenzyl)-8-hydroxy-7,9-dioxo-2,3,4,5,7,9,13,13a-octahydro-2,5-methanopyrido[1′,2′:4,5]pyrazino[2,1-b][1,3]oxazepine-10-carboxamide] | 10300 | 4
O=C(NC1(c2ccc(F)cc2F)CC1)c1cn2c(c(O)c1=O)C(=O)N1C(C2)O[C@H]2CCC[C@@H]1C2 (stereo partly drawn) [Compound 28, (2S,6R)-N-(1-(2,4-difluorophenyl)cyclopropyl)-9-hydroxy-8,10-dioxo-3,4,5,6,8,10,14,14a-octahydro-2H-2,6-methanopyrido[1′,2′:4,5]pyrazino[2,1-b][1,3]oxazocine-11-carboxamide] | 18700 | 6
O=C(NCc1ccc(F)cc1C(F)(F)F)c1cn2c(c(O)c1=O)C(=O)N1[C@H]3CC[C@H](C3)[C@@H]1C2 [Compound 67, (1R,4S,12aR)-N-(4-fluoro-2-(trifluoromethyl)benzyl)-7-hydroxy-6,8-dioxo-1,2,3,4,6,8,12,12a-octahydro-1,4-methanodipyrido[1,2-a:1′,2′-d]pyrazine-9-carboxamide] | 2980 | 0
O=C(NCc1ccc(F)cc1F)c1cn2c(c(O)c1=O)C(=O)N1C(C2)[N@]2CCC[C@H]1C2 (stereo partly drawn) [Compound 19, (1R,5S)-N-(2,4-difluorobenzyl)-8-hydroxy-7,9-dioxo-2,3,4,5,7,9, 13,13a-octahydro-1,5-methanopyrido[1′,2′:4,5]pyrazino[1,2-a][1,3]diazepine-10-carboxamide] | 38700 | 2
O=C(NCc1ccc(F)c(F)c1)c1cn2c(c(O)c1=O)C(=O)N1[C@H]3CC[C@H](C3)[C@@H]1C2 [Compound 66, (1R,4S,12aR)-N-(3,4-difluorobenzyl)-7-hydroxy-6,8-dioxo-1,2,3,4,6,8,12,12a-octahydro-1,4-methanodipyrido[1,2-a:1′,2′-d]pyrazine-9-carboxamide] | 11800 | 0
O=C(NCc1ccc(F)cc1Cl)c1cn2c(c(O)c1=O)C(=O)N1[C@H]3CC[C@H](C3)[C@@H]1C2 [Compound 68, (1R,4S,12aR)-N-(2-chloro-4-fluorobenzyl)-7-hydroxy-6,8-dioxo-1,2,3,4,6,8,12,12a-octahydro-1,4-methanodipyrido[1,2-a:1′,2′-d]pyrazine-9-carboxamide] | 4180 | 6
O=C(NCc1cccc(Cl)c1)c1cn2c(c(O)c1=O)C(=O)N1[C@H]3CC[C@H](C3)[C@@H]1C2 [Compound 72, (1R,4S,12aR)-N-(3-chlorobenzyl)-7-hydroxy-6,8-dioxo-1,2,3,4,6,8,12,12a-octahydro-1,4-methanodipyrido[1,2-a:1′,2′-d]pyrazine-9-carboxamide] | 6260 | 4
O=C(NCc1c(F)cc(F)cc1F)c1cn2c(c(O)c1=O)C(=O)N1[C@H]3CCC[C@H](C3)[C@H]1C2 [Compound 85, (6aS,7R,11S)-1-hydroxy-2,13-dioxo-N-(2,4,6-trifluorobenzyl)-6,6a,7,8,9,10,11,13-octahydro-2H-7,11-methanopyrido[1′,2′:4,5]pyrazino[1,2-a]azepine-3-carboxamide] | 10400 | 77
O=C(NCc1ccc(F)c(F)c1F)c1cn2c(c(O)c1=O)C(=O)N1[C@H]3CC[C@H](C3)[C@@H]1C2 [Compound 91, (1R,4S,12aR)-7-hydroxy-6,8-dioxo-N-(2,3,4-trifluorobenzyl)-1,2,3,4,6,8,12,12a-octahydro-1,4-methanodipyrido[1,2-a:1′,2′-d]pyrazine-9-carboxamide] | 7180 | 3
O=C(NCc1ccccc1F)c1cn2c(c(O)c1=O)C(=O)N1[C@@H]3CC[C@@H](C3)O[C@H]1C2 [Compound 23, (2S,5R,13aS)-N-(2-fluorobenzyl)-8-hydroxy-7,9-dioxo-2,3,4,5,7,9,13,13a-octahydro-2,5-methanopyrido[1′,2′:4,5]pyrazino[2,1-b][1,3]oxazepine-10-carboxamide] | 13400 | 45
C[C@@H](NC(=O)c1cn2c(c(O)c1=O)C(=O)N1[C@H]3CC[C@H](C3)O[C@@H]1C2)c1ccc(F)cc1 [Compound 10, (2R,5S,13aR)-N—((R)-1-(4-fluorophenyl)ethyl)-8-hydroxy-7,9-dioxo-2,3,4,5,7,9,13,13a-octahydro-2,5-methanopyrido[1′,2′:4,5]pyrazino[2,1-b][1,3]oxazepine-10-carboxamide] | 3670 | 19
O=C(NCc1ccc(F)c(Cl)c1)c1cn2c(c(O)c1=O)C(=O)N1[C@H]3CC[C@H](C3)[C@@H]1C2 [Compound 75, (1R,4S,12aR)-N-(3-chloro-4-fluorobenzyl)-7-hydroxy-6,8-dioxo-1,2,3,4,6,8,12,12a-octahydro-1,4-methanodipyrido[1,2-a:1′,2′-d]pyrazine-9-carboxamide] | 5290 | 0
O=C(NCc1cccc(Cl)c1Cl)c1cn2c(c(O)c1=O)C(=O)N1[C@H]3CC[C@H](C3)[C@@H]1C2 [Compound 60, (1R,4S,12aR)-N-(2,3-dichlorobenzyl)-7-hydroxy-6,8-dioxo-1,2,3,4,6,8,12,12a-octahydro-1,4-methanodipyrido[1,2-a:1′,2′-d]pyrazine-9-carboxamide] | 3310 | 3
O=C(NCc1cc(F)ccc1F)c1cn2c(c(O)c1=O)C(=O)N1[C@H]3CC[C@H](C3)O[C@@H]1C2 [Compound 89, (2R,5S,13aR)-N-(2,5-difluorobenzyl)-8-hydroxy-7,9-dioxo-2,3,4,5,7,9,13,13a-octahydro-2,5-methanopyrido[1′,2′:4,5]pyrazino[2,1-b][1,3]oxazepine-10-carboxamide] | 4630 | 5
O=C(NCc1cccc(F)c1F)c1cn2c(c(O)c1=O)C(=O)N1[C@@H]3CC[C@@H](C3)O[C@H]1C2 [Compound 16, (2S,5R,13aS)-N-(2,3-difluorobenzyl)-8-hydroxy-7,9-dioxo-2,3,4,5,7,9,13,13a-octahydro-2,5-methanopyrido[1′,2′:4,5]pyrazino[2,1-b][1,3]oxazepine-10-carboxamide] | 13600 | 17
O=C(NCc1ccc(F)c(F)c1F)c1cn2c(c(O)c1=O)C(=O)N1[C@@H]3CC[C@@H](C3)O[C@H]1C2 [Compound 44, (13aS)-8-hydroxy-7,9-dioxo-N-(2,3,4-trifluorobenzyl)-2,3,4,5,7,9,13,13a-octahydro-2,5-methanopyrido[1′,2′:4,5]pyrazino[2,1-b][1,3]oxazepine-10-carboxamide] | 9870 | 4

— patent US9663528B2, “Substituted 1,2,3,4,6,8,12,12a-octahydro-1,4-methanodipyrido[1,2-a:1',2'-d]pyrazines and methods for treating viral infections” (priority 2012, dated 2017)
